{"source": "patent US11786511B2", "about": "“Methods for increasing circulating mesenchymal stem cells” (University of Southern California, priority 2017, dated 2023)", "assay_type_in_all_cases": "in vivo, C57BL/10ScSn-Dmd^mdx/J)", "key": {"[1]": {"system": "circulating MSCs (CD45 negative, Sca-1, CD29 & CD105 positive)", "assay": "Flow cytometry of peripheral blood for CD45 negative cells triply positive for Sca-1, CD29 & CD105, mdx mouse model", "conditions": "mdx mice, 8 mg/kg oral twice daily, 6 weeks, vs vehicle treated mdx and wild-type", "experimental": "(§1) In the mdx mouse model of DMD, 5 week-old wild-type (C57BL/10SnJ) and mdx (C57BL/10ScSn-Dmd^mdx/J) mice were treated for 6 weeks and necropsied. These mice were broken into 4 orally dosed groups: a wild-type group (n=5) dosed twice daily with vehicle, an mdx group (n=8) dosed twice daily with vehicle, an mdx group (n=8) dosed once daily with 8 mg/kg of Compound 7, and an mdx group (n=8) dosed twice daily with 8 mg/kg of Compound 7. The vehicle was a 1% β-cyclodextrin in ˜pH 3 citrate buffer and the treatment 1% β-cyclodextrin in ˜pH 3 citrate buffer with Compound 7. At necropsy, the femur bone marrow was isolated and peripheral blood was harvested. […] CFU-F colonies of ≥50 cells were counted after 8 days in culture. […]\n(§2) During the necropsy, the blood was collected by cardiac puncture with a 1 mL syringe fitted with a 22G needle, transferred into 2 ml K3E K3EDTA VACUETTE® tubes, and stored on ice. […] The cell solutions were counted with a Z1 Coulter Counter (Beckman Coulter) and resuspended at 5*10^6 cells/mL. […] The supernatant was then removed, re-suspend in 500 μL 10% neutral buffered formalin, covered with aluminum foil, and stored at 4° C. until analyzed. Samples were then read on a LSR II flow cytometer (BD Biosciences, San Jose, Calif.). Data was analyzed using FlowJo™ V 10.0.7r2."}, "[2]": {"system": "bone marrow MSCs (CD45 negative, Sca-1, CD29 & CD105 positive)", "assay": "Flow cytometry of bone marrow for CD45 negative cells triply positive for Sca-1, CD29 & CD105, mdx mouse model", "conditions": "mdx mice, 8 mg/kg oral once or twice daily, 6 weeks, vs vehicle treated mdx", "experimental": "as §1, §2"}, "[3]": {"system": "bone marrow MSCs", "assay": "Bone marrow CFU-F colony count after 6 weeks oral treatment in the mdx mouse model of DMD", "conditions": "mdx mice, vs vehicle treated mdx", "experimental": "In the mdx mouse model of DMD, 5 week-old wild-type (C57BL/10SnJ) and mdx (C57BL/10ScSn-Dmd^mdx/J) mice were treated for 6 weeks and necropsied. These mice were broken into 4 orally dosed groups: a wild-type group (n=5) dosed twice daily with vehicle, an mdx group (n=8) dosed twice daily with vehicle, an mdx group (n=8) dosed once daily with 8 mg/kg of Compound 7, and an mdx group (n=8) dosed twice daily with 8 mg/kg of Compound 7. The vehicle was a 1% β-cyclodextrin in ˜pH 3 citrate buffer and the treatment 1% β-cyclodextrin in ˜pH 3 citrate buffer with Compound 7. At necropsy, the femur bone marrow was isolated and peripheral blood was harvested. The bone marrow was cultured in Mesencult™ MSC Basal Medium (mouse) supplemented with Mesencult™ MSC Stimulatory Supplement (Stemcell Technologies). CFU-F colonies of ≥50 cells were counted after 8 days in culture.\nAt necropsy, the femurs were also collected in a 1.5 mL microcentrifuge tube containing ˜800 μL of sterile Dulbecco's phosphate-buffered saline (DPBS) with 2% fetal bovine serum (FBS) and 2× Penicillin (Pen) and 2× Streptomycin (Strep) (DPBS/2% FBS/2× Pen/Strep) and stored on ice. […] The cell solutions were counted with a Z1 Coulter Counter (Beckman Coulter) and resuspended at 5*10^6 cells/mL. […] On day 8, the colonies of ≥50 were counted by light microscopy."}}, "note": "Entries after “also recorded” stand apart in the source; their conditions may differ."}
{"smiles": "CCCCOC(=O)NS(=O)(=O)c1ccc(OC(F)(F)F)cc1-c1ccc(Cn2ccnc2)cn1", "note": "[Compound 7]", "values": [{"measurement": "Percentage of CD45 negative cells triply positive for Sca-1, CD29 & CD105 in peripheral blood (circulating MSCs)", "setting": "[1]", "result": "significantly higher; also recorded: significant increase"}, {"measurement": "Percentage of CD45 negative cells triply positive for Sca-1, CD29 & CD105 in bone marrow", "setting": "[2]", "result": "restored the percentage of these triply positive cells to levels comparable to non-dystrophic controls; also recorded: significantly increased"}, {"measurement": "Bone marrow MSC, CFU-F counts (colonies of ≥50 cells after 8 days in culture)", "setting": "[3]; 8 mg/kg oral once daily", "result": "significantly increased; also recorded: significant increase"}, {"measurement": "Bone marrow MSC, CFU-F counts (colonies of ≥50 cells after 8 days in culture)", "setting": "[3]; 8 mg/kg oral twice daily", "result": "restoring levels comparable to the non-dystrophic controls; also recorded: significant increase"}]}
